Where “and” joins values, the source holds several entries; their conditions need not be identical. Equal entries are not always repeated. Where two headings read alike, the source gives them in different places.
Biological target: Jack bean urease (Canavalia ensiformis, UniProt P07374)
Assay: Urease inhibition assay
Assay type: biochemical

Chain of Jack bean urease (P07374 whole entry, looked up): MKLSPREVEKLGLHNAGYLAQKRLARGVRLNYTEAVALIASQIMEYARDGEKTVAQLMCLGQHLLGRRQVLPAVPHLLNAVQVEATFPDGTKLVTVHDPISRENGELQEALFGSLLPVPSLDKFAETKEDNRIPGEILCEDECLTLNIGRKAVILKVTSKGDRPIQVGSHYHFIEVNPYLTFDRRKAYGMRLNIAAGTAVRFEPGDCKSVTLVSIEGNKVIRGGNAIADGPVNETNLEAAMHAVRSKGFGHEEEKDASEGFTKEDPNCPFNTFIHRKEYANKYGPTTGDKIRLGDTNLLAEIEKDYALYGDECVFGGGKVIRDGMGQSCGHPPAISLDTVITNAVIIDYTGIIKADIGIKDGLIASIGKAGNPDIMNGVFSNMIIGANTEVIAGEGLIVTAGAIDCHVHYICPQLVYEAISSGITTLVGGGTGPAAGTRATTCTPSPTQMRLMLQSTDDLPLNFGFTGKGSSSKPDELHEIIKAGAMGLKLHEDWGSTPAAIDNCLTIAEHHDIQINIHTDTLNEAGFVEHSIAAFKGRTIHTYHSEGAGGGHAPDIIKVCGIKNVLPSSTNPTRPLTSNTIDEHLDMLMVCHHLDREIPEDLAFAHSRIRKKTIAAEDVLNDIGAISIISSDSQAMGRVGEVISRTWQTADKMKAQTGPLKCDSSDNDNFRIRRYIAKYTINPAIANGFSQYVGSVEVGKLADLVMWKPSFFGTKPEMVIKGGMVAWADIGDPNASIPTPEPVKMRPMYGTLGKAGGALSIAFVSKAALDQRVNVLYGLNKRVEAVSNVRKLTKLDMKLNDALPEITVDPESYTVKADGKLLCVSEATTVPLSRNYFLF

With `CC1(C)CC(=O)C2=C(C1)Nc1[nH]c(=O)[nH]c(=O)c1C21C(=O)Nc2ccccc21` (centres unmarked) [7a, 8',8'-Dimethyl-8',9'-dihydro-1'H-spiro [indoline-3,5'-pyrimido[4,5-b]quinoline]-2,2',4', 6'(3'H,7'H,10'H)-tetraone] the IC50 (IC50 (urease inhibitory activity), 37 °C, 30 minutes, read at 625 nm, triplicate) was 7.44 µM and 2.81 µM.

In the case of `NC(=O)NO` [hydroxyurea, reference compound], the IC50 (read-out: IC50 (urease inhibitory activity), 37 °C, 30 minutes, read at 625 nm, triplicate) is reported as 100 µM.
